Measured values reported in PubChem BioAssay (NCI).
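How tested: cells in 96-well plates exposed to compound for 48 hours at five concentrations. TGI is the concentration that stops growth completely.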

Assays:
Assay in all cases: NCI anticancer screen, dose series, 48 h
[1] = system: IGROV1 ovarian
[2] = system: TK-10 renal
[3] = system: HOP-62 NSCLC
[4] = system: HCT-116 colon
[5] = system: EKVX NSCLC
[6] = system: HOP-92 NSCLC
[7] = system: SK-MEL-5 melanoma
[8] = system: RXF 393 renal
[9] = system: SF-268 CNS
[10] = system: SK-MEL-28 melanoma
[11] = system: HCT-15 colon
[12] = system: OVCAR-4 ovarian
[13] = system: SR leukemia
[14] = system: SF-539 CNS
[15] = system: RPMI-8226 leukemia
[16] = system: MOLT-4 leukemia
[17] = system: HL-60(TB) leukemia
[18] = system: OVCAR-8 ovarian
[19] = system: U251 CNS
[20] = system: M14 melanoma
[21] = system: HCC-2998 colon
[22] = system: COLO 205 colon
[23] = system: HOP-18 NSCLC
[24] = system: K-562 leukemia
[25] = system: UO-31 renal
[26] = system: DLD-1 colon
[27] = system: SNB-19 CNS
[28] = system: SK-MEL-2 melanoma
[29] = system: SNB-78 CNS
[30] = system: UACC-62 melanoma
[31] = system: HT29 colon
[32] = system: KM12 colon
[33] = system: DMS 114 small cell lung
[34] = system: KM20L2 colon
[35] = system: OVCAR-3 ovarian
[36] = system: SF-295 CNS
[37] = system: MALME-3M melanoma
[38] = system: CAKI-1 renal
[39] = system: M19-MEL melanoma
[40] = system: NCI-H23 lung
[41] = system: SK-OV-3 ovarian
[42] = system: ACHN renal
[43] = system: DMS 273 small cell lung
[44] = system: OVCAR-5 ovarian
[45] = system: LXFL 529 NSCLC
[46] = system: A549 NSCLC
[47] = system: CCRF-CEM leukemia
[48] = system: SN12C renal
[49] = system: SNB-75 CNS
[50] = system: NCI-H460 lung
[51] = system: LOX IMVI melanoma
[52] = system: NCI-H522 lung
[53] = system: A498 renal
[54] = system: SW-620 colon
[55] = system: 786-0 renal

O=C1OCc2cccc3c2-c2c1cccc2C(=O)OC3 showed a TGI [1] greater than 100 µM, a TGI [2] greater than 100 µM and a TGI [3] greater than 100 µM. The TGI [4] was greater than 100 µM, the TGI [5] was greater than 100 µM and the TGI [6] was 92.2 µM. It also gave a TGI [7] greater than 100 µM, a TGI [8] greater than 100 µM and a TGI [9] greater than 100 µM. The TGI [10] was greater than 100 µM, the TGI [11] was greater than 100 µM and the TGI [12] was greater than 100 µM. The TGI [13] was greater than 100 µM, the TGI [14] was greater than 100 µM and the TGI [15] was greater than 100 µM. It also gave a TGI [16] greater than 100 µM, a TGI [17] greater than 100 µM and a TGI [18] greater than 100 µM. It also gave a TGI [19] greater than 100 µM, a TGI [20] greater than 100 µM and a TGI [21] greater than 100 µM. For the same compound, the TGI [22] was greater than 100 µM, the TGI [23] was greater than 100 µM and the TGI [24] was greater than 100 µM. The TGI [25] was greater than 100 µM, the TGI [26] was greater than 100 µM and the TGI [27] was greater than 100 µM. For the same compound, the TGI [28] was greater than 100 µM, the TGI [29] was greater than 100 µM and the TGI [30] was greater than 100 µM. The TGI [31] was greater than 100 µM, the TGI [32] was greater than 100 µM and the TGI [33] was greater than 100 µM. It also gave a TGI [34] greater than 100 µM, a TGI [35] greater than 100 µM and a TGI [36] greater than 100 µM. The TGI [37] was greater than 100 µM, the TGI [38] was greater than 100 µM and the TGI [39] was greater than 100 µM. It also gave a TGI [40] greater than 100 µM and a TGI [41] greater than 100 µM.
With O=C1CC(=O)N(CCc2ccccc2)S(=O)(=O)N1CCc1ccccc1 the TGI [1] was 42 µM, the TGI [2] was greater than 100 µM and the TGI [3] was greater than 100 µM. The TGI [4] was 74.5 µM, the TGI [42] was greater than 100 µM and the TGI [6] was 32.3 µM. For the same compound, the TGI [7] was 44.2 µM, the TGI [8] was 83.4 µM and the TGI [43] was 43.8 µM. The TGI [9] was 80.8 µM, the TGI [10] was greater than 100 µM and the TGI [11] was greater than 100 µM. It also gave a TGI [44] of 64.4 µM, a TGI [45] of 40.7 µM and a TGI [12] of 44.6 µM. It also gave a TGI [46] of 64.8 µM, a TGI [13] of 48.2 µM and a TGI [14] of 43.5 µM. The TGI [47] was 35 µM, the TGI [15] was 52 µM and the TGI [16] was 44.2 µM. For the same compound, the TGI [17] was 38.3 µM, the TGI [48] was greater than 100 µM and the TGI [49] was 84.7 µM. It also gave a TGI [19] of 30.5 µM, a TGI [20] greater than 100 µM and a TGI [21] greater than 100 µM. The TGI [22] was 44.2 µM, the TGI [23] was greater than 100 µM and the TGI [24] was 58.1 µM. For the same compound, the TGI [50] was greater than 100 µM, the TGI [25] was 40.5 µM and the TGI [26] was greater than 100 µM. For the same compound, the TGI [27] was 87.4 µM, the TGI [28] was 48.3 µM and the TGI [30] was 77.7 µM. It also gave a TGI [51] of 3.72 µM, a TGI [31] of 47.5 µM and a TGI [52] of 37.5 µM. For the same compound, the TGI [32] was 39.5 µM, the TGI [33] was 48.6 µM and the TGI [53] was 34.2 µM. The TGI [35] was 36.8 µM, the TGI [54] was greater than 100 µM and the TGI [55] was 30.8 µM. For the same compound, the TGI [36] was 35.4 µM, the TGI [37] was 79.5 µM and the TGI [38] was 51.4 µM. It also gave a TGI [39] greater than 100 µM, a TGI [40] of 69.1 µM and a TGI [41] of 61 µM.
